Our source for the IC50 values is US11780845B2 (Relay Therapeutics, Inc., priority 2019, dated 2023).

Structures are written as SMILES.

One assay has as its target FGFR2 (Homo sapiens (Human), UniProt P21802). Nature of the assay: Biochemical FGFR2 Caliper assay.
Another assay relates to SNU-16. The assay can be described thus: Cell SNU-16 assay. The class given is cell-based.
Where [1] appears, read: Homo sapiens, SNU-16, SNU-16 cells.

FGFR2, sequence (P21802 22-821): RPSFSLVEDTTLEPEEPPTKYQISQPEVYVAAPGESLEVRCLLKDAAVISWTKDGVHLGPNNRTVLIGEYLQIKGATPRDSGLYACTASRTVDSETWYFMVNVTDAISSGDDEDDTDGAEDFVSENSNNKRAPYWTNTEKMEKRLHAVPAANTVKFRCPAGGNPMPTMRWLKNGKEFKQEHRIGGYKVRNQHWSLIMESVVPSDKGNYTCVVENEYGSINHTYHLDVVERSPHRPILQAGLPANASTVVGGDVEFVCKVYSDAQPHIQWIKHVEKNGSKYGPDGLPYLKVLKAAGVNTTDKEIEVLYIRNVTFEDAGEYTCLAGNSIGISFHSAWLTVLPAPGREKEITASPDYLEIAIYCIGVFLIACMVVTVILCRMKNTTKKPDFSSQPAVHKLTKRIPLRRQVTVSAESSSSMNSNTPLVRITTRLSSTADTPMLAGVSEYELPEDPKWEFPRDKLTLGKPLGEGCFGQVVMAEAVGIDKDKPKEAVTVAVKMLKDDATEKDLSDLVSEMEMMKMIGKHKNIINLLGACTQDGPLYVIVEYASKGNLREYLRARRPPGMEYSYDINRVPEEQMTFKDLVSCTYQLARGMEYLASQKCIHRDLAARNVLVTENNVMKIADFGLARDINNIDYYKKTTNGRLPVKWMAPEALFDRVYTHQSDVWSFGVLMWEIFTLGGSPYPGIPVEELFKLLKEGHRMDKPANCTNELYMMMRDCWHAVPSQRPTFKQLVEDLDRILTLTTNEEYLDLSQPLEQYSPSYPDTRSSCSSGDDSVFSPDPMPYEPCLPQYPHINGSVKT

In the case of `C#Cc1cc(C)c(-c2c(C3=CC[C@@H](C(=O)N4CCC[C@H]4C)CC3)c3c(N)ncnc3n2C)c(F)n1` [Example 1347], the IC50 – broadly, the point on the concentration scale where inhibition reaches its midpoint – at FGFR2 is less than 100 nM; with SNU-16 (setting [1]), not above 100 nM.

Consider `C#Cc1cc(C)c(-c2c(C3=CC[C@H](C(=O)N4CCC[C@H]4C#N)CC3)c3c(N)ncnc3n2C)c(C)n1` (atropisomer, axis not shown) [Example 1469], for which the half-inhibitory concentration (IC50) against FGFR2 was less than 100 nM; in the assay on SNU-16 (setting [1]), not above 100 nM.

For `C#Cc1nc2ccc(-c3c(-c4ccc(Oc5nccc(C)n5)cc4)c4c(N)ncnc4n3C)cc2o1` [Example 1167], the IC50 against FGFR2 was less than 100 nM; in the assay on SNU-16 (setting [1]), not above 100 nM.

`C#Cc1ccc(-c2c(-c3ccc(Oc4nccc(C)n4)cc3)c3c(N)ncnc3n2C)cn1` [Example 1067]: the IC50 at FGFR2 is less than 100 nM; in the assay with SNU-16 (setting [1]), not above 100 nM.

Regarding `C=CC(=O)N1CCC(c2c(-c3ccc(CC4CCCC4)cc3)c3c(N)ncnc3n2C)C1` (stereo not shown) [Example 799], the IC50 at FGFR2 and in the assay with SNU-16 (setting [1]) was 250 to 1000 nM each time.

In the case of `C=CC(=O)Nc1ccc(-c2c(-c3ccc(C(=O)NCC4(F)COC4)cc3)c3c(N)ncnc3n2C)cc1` [Example 1020], the figures for the IC50 on FGFR2 and with SNU-16 (setting [1]) were 100 to 250 nM and not above 100 nM, respectively.

On to `C=C(C)C(=O)Nc1ccc(-c2oc3ncnc(N)c3c2-c2ccc(Oc3cccc(C)n3)cc2)cc1` [Example 802], for which the IC50 on FGFR2 and with SNU-16 (setting [1]) was 1000 to 100000 nM throughout.

In the case of `C=CC(=O)Nc1ccc(-c2cn3ncnc(N)c3c2-c2ccc(C(=O)N3CCCCC3)cc2)cc1` [Example 837], the IC50 on FGFR2 is less than 100 nM; in the assay with SNU-16 (setting [1]), not above 100 nM.

Regarding `C=CC(=O)Nc1ccc(-c2cn3ncnc(N)c3c2-c2ccc(C(=O)NCC(F)(F)F)cc2)cc1` [Example 838], the results for the IC50 on FGFR2 and with SNU-16 (setting [1]) were less than 100 nM and not above 100 nM, respectively.

For the molecule `C=C(C)C(=O)Nc1ccc(-c2c(C3=CC[C@H](C(=O)N4CC[C@@H]5C[C@@H]54)CC3)c3c(N)ncnc3n2C)cc1` (single isomer, unassigned) [Example 1038], the IC50 against FGFR2 was less than 100 nM; in the assay on SNU-16 (setting [1]), not above 100 nM.

On to `C=C(C)C(=O)Nc1ccc(-c2c(-c3ccc4c(C(=O)NC5CC5)n[nH]c4c3)c3c(N)ncnc3n2C)cc1` [Example 1323], for which the IC50 at FGFR2 and in the assay with SNU-16 (setting [1]) was 1000 to 100000 nM each time.

Turning to `C=CC(=O)N1CC(CO)C(c2c(-c3ccc(Oc4cccc(C)n4)cc3)c3c(N)ncnc3n2C)C1` (stereo not shown) [Example 814], the IC50 was less than 100 nM against FGFR2 and not above 100 nM with SNU-16 (setting [1]).

As to `C=C(C)C(=O)Nc1ccc(-c2c(C3=CC[C@@](C)(C(=O)N4CCCC4)CC3)c3c(N)ncnc3n2C)cc1` [Example 1025], the IC50 at FGFR2 and in the assay with SNU-16 (SNU-16 cells) was 1000 to 100000 nM in each case.

In the case of `C=C(C)C(=O)Nc1ccc(-c2c(-c3ccc4ncccc4c3)c3c(N)ncnc3n2C)cc1` [Example 1282], the IC50 against FGFR2 and in the assay on SNU-16 (setting [1]) was 1000 to 100000 nM throughout.

In the case of `C#Cc1ccc(-c2c(C3=CC[C@H](C(=O)N4CCCC4)CC3)c3cncnc3n2C)c(C)n1` (single isomer, unassigned) [Example 1207], the IC50 on FGFR2 and in the assay with SNU-16 (setting [1]) was 1000 to 100000 nM throughout.

Regarding `C#Cc1cnc(-c2c(-c3ccc(Oc4nccc(C)n4)c(F)c3)c3c(N)ncnc3n2C)c(C)n1` [Example 1358], the IC50 against FGFR2 is less than 100 nM; in the assay with SNU-16 (setting [1]) it was not above 100 nM.

With `C#Cc1cc(C)c(-c2c(-c3ccc(Oc4nccc(C)n4)c(F)c3)c3c(N)ncnc3n2[C@H]2C[C@H](O)C2)cn1` (atropisomer, axis not shown) [Example 1357], the IC50 against FGFR2 is less than 100 nM; in the assay with SNU-16 (setting [1]), not above 100 nM.

As for `COCC#Cc1cc(C)c(-c2c(C3=CC[C@@H](C(=O)N4CCC[C@H]4C)CC3)c3c(N)ncnc3n2C)cn1` [Example 1383], the IC50 against FGFR2 and in the assay with SNU-16 (setting [1]) was 250 to 1000 nM throughout.

`C=C(C)C(=O)Nc1ccc(-c2c(C3=CC[C@@H](C(=O)N4CCC[C@@H]4C)CC3)c3c(N)ncnc3n2C)cc1` [Example 1003]: the IC50 lay in the range of 250 to 1000 nM against FGFR2 and 100 to 250 nM in the assay on SNU-16 (setting [1]).

As to `C#Cc1cc(C)c(-c2c(-c3ccc(Oc4nccc(C)n4)c(F)c3)c3c(CO)ncnc3n2C)cn1` [Example 1479], the IC50 is 250 to 1000 nM at FGFR2 and not above 100 nM in the assay on SNU-16 (setting [1]).

For `C#Cc1ncc(-c2c(-c3ccc(Oc4nccc(C)n4)c(F)c3)c3c(N)ncnc3n2C)c(C)n1` [Example 1153], the IC50 is less than 100 nM against FGFR2 and 100 to 250 nM in the assay on SNU-16 (setting [1]).

`C#Cc1ncc(-c2c(-c3ccc(Oc4nccc(C)n4)cc3)c3c(N)ncnc3n2C)cn1` [Example 1000]: the IC50 was 1000 to 100000 nM on FGFR2 and 250 to 1000 nM with SNU-16 (SNU-16 cells).

Take `C#Cc1c(F)cc(-c2c(-c3ccc(Oc4nccc(C)n4)cc3)c3c(N)ncnc3n2C)cc1F` [Example 1177]: the results for the IC50 against FGFR2 and in the assay on SNU-16 (setting [1]) were less than 100 nM and not above 100 nM, respectively.

As for `C=CC(=O)Nc1ccc(-c2c(C3=CC[C@@H](C(=O)N4CCCC4)CC3)c3c(C)ncnc3n2C)c(C)c1` (single isomer, unassigned) [Example 1106], the IC50 against FGFR2 is less than 100 nM; in the assay with SNU-16 (setting [1]), not above 100 nM.

`C=CC(=O)Nc1ccc(-c2c(-c3cc[nH]c3)c3c(N)ncnc3n2C)cc1` [Example 1154]: the IC50 at FGFR2 was less than 100 nM; in the assay with SNU-16 (setting [1]), not above 100 nM.

Regarding `C=C(C)C(=O)Nc1ccc(-c2c(-c3ccc(C(=O)NCC4CCC4)c(OC)c3)c3c(N)ncnc3n2C)cc1` [Example 1046], the IC50 on FGFR2 and in the assay on SNU-16 (setting [1]) was 1000 to 100000 nM each time.

With `C=C(C)C(=O)Nc1ccc(-c2cn3ncnc(N)c3c2C2=CCC(C(=O)N(C)C)CC2)cc1` (stereo not shown) [Example 843], the IC50 against FGFR2 and in the assay with SNU-16 (setting [1]) was 250 to 1000 nM throughout.

On to `C=C1CCN(c2ccc(-c3c(-c4ccc(Oc5nccc(C)n5)c(F)c4)c4c(N)ncnc4n3C)cc2)C1=O` [Example 1110], for which the results for the IC50 at FGFR2 and in the assay on SNU-16 (setting [1]) were less than 100 nM and not above 100 nM, respectively.

Take `C#Cc1ccc2cc(-c3c(-c4ccc(Oc5nccc(C)n5)c(F)c4)c4c(N)ncnc4n3C)ccc2n1` [Example 1405]: the IC50 is less than 100 nM against FGFR2 and not above 100 nM in the assay on SNU-16 (setting [1]).

On to `C#Cc1ccc2c(n1)CCCn1c-2c(-c2ccc(Oc3nccc(C)n3)c(F)c2)c2c(N)ncnc21` [Example 1443], for which the IC50 against FGFR2 was 100 to 250 nM; in the assay on SNU-16 (setting [1]) it was not above 100 nM.

Regarding `C=C(C)C(=O)Nc1ccc(-c2c(-c3ccc(N)nc3)c3c(N)ncnc3n2C)cc1` [Example 1295], the IC50 at FGFR2 and in the assay on SNU-16 (setting [1]) was 1000 to 100000 nM in each case.

As to `C=C(C)C(=O)Nc1ccc(-c2c(C3=CC[C@@H](C(=O)N4CCCC4)CC3)c3c(N)ncnc3n2C)c(F)c1` [Example 1002], the IC50 is less than 100 nM against FGFR2 and not above 100 nM in the assay on SNU-16 (setting [1]).

With `C#Cc1ncc(-c2c(-c3ccc(Oc4nccc(C)n4)c(F)c3)c3c(N)ncnc3n2C)c(C)c1F` [Example 1313], the IC50 was less than 100 nM against FGFR2 and not above 100 nM in the assay with SNU-16 (setting [1]).

Consider `C=CC(=O)N1CCC(c2c(-c3ccc(-n4cc(C)cn4)cc3)c3c(N)ncnc3n2C)C1` (stereo not shown) [Example 811], for which the IC50 against FGFR2 fell in the range of 100 to 250 nM; in the assay with SNU-16 (setting [1]) it was 250 to 1000 nM.

Consider `C#Cc1ccc2cc(-c3c(-c4ccc(Oc5nccc(C)n5)c(F)c4)c4c(N)ncnc4n3C)cnc2n1` [Example 1429], for which the IC50 was less than 100 nM against FGFR2 and not above 100 nM with SNU-16 (setting [1]).

`C#Cc1cc(OC)c(-c2c(-c3ccc(C(=O)NCC4(F)CCC4)c(OC)c3)c3c(C)ncnc3n2C)cn1` [Example 1457]: the figures for the IC50 at FGFR2 and in the assay with SNU-16 (setting [1]) were 100 to 250 nM and not above 100 nM, respectively.

`C=C(C)C(=O)Nc1ccc(-c2c(-c3ccc4oc(C)nc4c3)c3c(N)ncnc3n2C)cc1` [Example 1280]: the 50% inhibitory concentration (IC50) at FGFR2 and in the assay on SNU-16 (setting [1]) was 250 to 1000 nM throughout.

`C=CC(=O)Nc1ccc(-c2c(-c3ccc(Oc4nccc(C)n4)cc3)c3c(C)ncnc3n2C)c(C)c1` [Example 1104]: the figures for the IC50 at FGFR2 and in the assay on SNU-16 (setting [1]) were less than 100 nM and not above 100 nM, respectively.

Take `Cn1c(-c2ccc(NC(=O)CCl)cc2)c(C2=CC[C@H](C(=O)N3CCCC3)CC2)c2c(N)ncnc21` (single isomer, unassigned) [Example 905]: the IC50 against FGFR2 is 100 to 250 nM; in the assay with SNU-16 (setting [1]) it was not above 100 nM.

For the molecule `C=C(C)C(=O)Nc1ccc(-c2c(-c3cc4cccnc4s3)c3c(N)ncnc3n2C)cc1` [Example 1270], the IC50 against FGFR2 and in the assay on SNU-16 (setting [1]) was 250 to 1000 nM in each case.

Consider `C=C(C)C(=O)Nc1ccc(-c2c(C3=CC[C@H](C(=O)N4CCC[C@H]4C4CC4)CC3)c3c(N)ncnc3n2C)cc1` [Example 1059], for which the IC50 against FGFR2 and in the assay on SNU-16 (setting [1]) was 1000 to 100000 nM in each case.

Regarding `C#Cc1nc2cc(-c3c(-c4ccc(Oc5nccc(C)n5)c(F)c4)c4c(N)ncnc4n3C)c(C)cc2n1C` [Example 1434], the IC50 was less than 100 nM at FGFR2 and not above 100 nM in the assay on SNU-16 (setting [1]).

Consider `C=CC(=O)Nc1cc(-c2c(-c3ccc(Oc4nccc(C)n4)cc3)c3c(N)ncnc3n2C)n(C)n1` [Example 1108], for which the values for the IC50 against FGFR2 and in the assay on SNU-16 (setting [1]) were less than 100 nM and not above 100 nM, respectively.

`C=CC(=O)N[C@@H]1CCc2cc(-c3c(-c4ccc(Oc5nccc(C)n5)cc4)c4c(N)ncnc4n3C)ccc21` (single isomer, unassigned) [Example 942]: the IC50 against FGFR2 and in the assay on SNU-16 (setting [1]) was 250 to 1000 nM in each case.

For the molecule `C=C(C)C(=O)Nc1ccc(-c2c(C3=COCCC3)c3c(N)ncnc3n2C)cc1` [Example 1268], the IC50 on FGFR2 and in the assay with SNU-16 (setting [1]) was 1000 to 100000 nM each time.

Consider `C=C(C)C(=O)Nc1ccc(-c2c(-c3ccc(-c4noc(C)n4)cc3)c3c(N)ncnc3n2C)cc1` [Example 1145], for which the IC50 against FGFR2 and in the assay on SNU-16 (setting [1]) was 1000 to 100000 nM throughout.

`C#Cc1nc(C)c(-c2c(-c3ccc(Oc4nccc(C)n4)cc3)c3c(N)ncnc3n2C)cc1F` [Example 1171]: the figures for the IC50 on FGFR2 and in the assay with SNU-16 (setting [1]) were less than 100 nM and not above 100 nM, respectively.

On to `C=CC(=O)N[C@H]1CCN(c2cccc(-c3c(-c4ccc(Oc5cccc(C)n5)cc4)c4c(N)ncnc4n3C)c2)C1` (single isomer, unassigned) [Example 1031], for which the IC50 is less than 100 nM against FGFR2 and 100 to 250 nM in the assay with SNU-16 (setting [1]).

Take `C#Cc1cc(C)c(-c2c(-c3ccc(Oc4nccc(C)n4)c(F)c3)c3c(N)ncnc3n2C(C)C)cn1` [Example 1213]: the IC50 on FGFR2 is less than 100 nM; in the assay with SNU-16 (setting [1]) it was not above 100 nM.

For `C#Cc1cc(C)c(-c2c(C3=CC[C@@]4(CC3)Cc3ccc(C)nc3C4=O)c3c(N)ncnc3n2C)cn1` [Example 1394], the IC50 against FGFR2 and with SNU-16 (setting [1]) was 100 to 250 nM in each case.
